{"source": "ChEMBL document CHEMBL6078630", "about": "“Design, synthesis, and bioactivity investigation of novel cyclic lipopeptide antibiotics targeting top-priority multidrug-resistant gram-negative bacteria” (Eur J Med Chem, 2024)", "key": {"Pseudomonas aeruginosa [1]": {"system": "Pseudomonas aeruginosa", "experiment": "Antibacterial activity against carbapenem-resistant Pseudomonas aeruginosa clinical isolate ets85 assessed as inhibition of bacterial growth incubated for 24 hrs by CLSI protocol based broth microdilution method", "format": "functional"}, "[2]": {"experiment": "Half-life in male Sprague-Dawley rat at 3 mg/kg, iv measured after 24 hrs by LC-MS/MS analysis", "format": "ADME, organism-based", "settings": "in vivo"}, "Escherichia coli [3]": {"system": "Escherichia coli", "experiment": "Antibacterial activity against carbapenem-resistant Escherichia coli ATCC BAA-2340 assessed as inhibition of bacterial growth incubated for 16 to 20 hrs by CLSI protocol based broth microdilution method", "format": "functional", "settings": "time 16-20 hrs"}, "Acinetobacter baumannii [4]": {"system": "Acinetobacter baumannii", "experiment": "Antibacterial activity against carbapenem-resistant Acinetobacter baumannii clinical isolate ets171 assessed as inhibition of bacterial growth incubated for 24 hrs by CLSI protocol based broth microdilution method", "format": "functional"}, "Klebsiella pneumoniae [5]": {"system": "Klebsiella pneumoniae", "experiment": "Antibacterial activity against carbapenem-resistant Klebsiella pneumoniae ATCC BAA-1705 assessed as inhibition of bacterial growth incubated for 16 to 20 hrs by CLSI protocol based broth microdilution method", "format": "functional", "settings": "time 16-20 hrs"}, "Acinetobacter baumannii [6]": {"system": "Acinetobacter baumannii", "experiment": "Antibacterial activity against carbapenem-resistant Acinetobacter baumannii clinical isolate ets123 assessed as inhibition of bacterial growth incubated for 24 hrs by CLSI protocol based broth microdilution method", "format": "functional"}, "Pseudomonas aeruginosa [7]": {"system": "Pseudomonas aeruginosa", "experiment": "Potentiation of rifampicin induced antibacterial activity against Pseudomonas aeruginosa ATCC 27853 assessed as rifampicin MIC at 0.016 microg/ml incubated 24 hrs by cation adjusted Mueller-Hinton broth based method", "format": "functional", "settings": "dose 0.016 µg/ml"}, "Lipopolysaccharide (LPS) [8]": {"system": "Lipopolysaccharide (LPS)", "experiment": "Binding affinity to Escherichia coli LPS assessed as dissociation constant by SPR analysis"}, "[9]": {"experiment": "Renal cytotoxicity against HK-2 cells incubated for 72 hrs by CCK8 assay", "format": "toxicity, cell-based", "settings": "human"}, "Acinetobacter baumannii [10]": {"system": "Acinetobacter baumannii", "experiment": "Antibacterial activity against Acinetobacter baumannii NCTC 13304 (OXA-27) assessed as inhibition of bacterial growth incubated for 16 to 20 hrs by CLSI protocol based broth microdilution method", "format": "functional", "settings": "time 16-20 hrs"}, "Pseudomonas aeruginosa [11]": {"system": "Pseudomonas aeruginosa", "experiment": "Antibacterial activity against Pseudomonas aeruginosa ATCC 27853 infected in ICR mouse model infected in ICR mouse model assessed as survival rate at 10 mg/kg, iv administered at 1 and 6 hrs post-infection and measured after 7 days relative to control", "format": "functional", "settings": "ATCC 27853, 168 h, time 7 day"}, "Klebsiella pneumoniae [12]": {"system": "Klebsiella pneumoniae", "experiment": "Antibacterial activity against carbapenem-resistant Klebsiella pneumoniae clinical isolate ets77 assessed as inhibition of bacterial growth incubated for 24 hrs by CLSI protocol based broth microdilution method", "format": "functional"}, "Pseudomonas aeruginosa [13]": {"system": "Pseudomonas aeruginosa", "experiment": "Potentiation of rifampicin induced antibacterial activity against Pseudomonas aeruginosa ATCC 27853 assessed as rifampicin MIC at 0.008 microg/ml incubated 24 hrs by cation adjusted Mueller-Hinton broth based method", "format": "functional", "settings": "dose 0.008 µg/ml"}, "Acinetobacter baumannii [14]": {"system": "Acinetobacter baumannii", "experiment": "Antibacterial activity against carbapenem-resistant Acinetobacter baumannii clinical isolate ets30 assessed as inhibition of bacterial growth incubated for 24 hrs by CLSI protocol based broth microdilution method", "format": "functional"}, "Pseudomonas aeruginosa [15]": {"system": "Pseudomonas aeruginosa", "experiment": "Potentiation of rifampicin induced antibacterial activity against Pseudomonas aeruginosa ATCC 27853 assessed as rifampicin MIC at 0.004 microg/ml incubated 24 hrs by cation adjusted Mueller-Hinton broth based method", "format": "functional", "settings": "dose 0.004 µg/ml"}, "Escherichia coli [16]": {"system": "Escherichia coli", "experiment": "Antibacterial activity against Escherichia coli ATCC BAA-2523 assessed as inhibition of bacterial growth incubated for 16 to 20 hrs by CLSI protocol based broth microdilution method", "format": "functional", "settings": "time 16-20 hrs"}, "Pseudomonas aeruginosa [17]": {"system": "Pseudomonas aeruginosa", "experiment": "Antibacterial activity against carbapenem-resistant Pseudomonas aeruginosa clinical isolate ets33 assessed as inhibition of bacterial growth incubated for 24 hrs by CLSI protocol based broth microdilution method", "format": "functional"}, "Escherichia coli [18]": {"system": "Escherichia coli", "experiment": "Antibacterial activity against carbapenem-resistant Escherichia coli clinical isolate 231109W005 assessed as inhibition of bacterial growth incubated for 24 hrs by CLSI protocol based broth microdilution method", "format": "functional"}, "[19]": {"experiment": "Volume of distribution in male Sprague-Dawley rat at 3 mg/kg, iv measured after 24 hrs by LC-MS/MS analysis", "format": "ADME, organism-based", "settings": "in vivo"}, "Klebsiella pneumoniae [20]": {"system": "Klebsiella pneumoniae", "experiment": "Antibacterial activity against carbapenem-resistant Klebsiella pneumoniae clinical isolate KPN+19-15 infected in ICR mouse model assessed as survival rate at 2 mg/kg, iv administered at 1 and 6 hrs post-infection and measured after 7 days relative to control", "format": "functional", "settings": "168 h, time 7 day"}, "Klebsiella pneumoniae [21]": {"system": "Klebsiella pneumoniae", "experiment": "Antibacterial activity against carbapenem-resistant Klebsiella pneumoniae clinical isolate ets40 assessed as inhibition of bacterial growth incubated for 24 hrs by CLSI protocol based broth microdilution method", "format": "functional"}, "Acinetobacter baumannii [22]": {"system": "Acinetobacter baumannii", "experiment": "Antibacterial activity against carbapenem-resistant Acinetobacter baumannii clinical isolate ets178 assessed as inhibition of bacterial growth incubated for 24 hrs by CLSI protocol based broth microdilution method", "format": "functional"}, "Klebsiella pneumoniae [23]": {"system": "Klebsiella pneumoniae", "experiment": "Antibacterial activity against carbapenem-resistant Klebsiella pneumoniae clinical isolate ets74 assessed as inhibition of bacterial growth incubated for 24 hrs by CLSI protocol based broth microdilution method", "format": "functional"}, "Acinetobacter baumannii [24]": {"system": "Acinetobacter baumannii", "experiment": "Antibacterial activity against carbapenem-resistant Acinetobacter baumannii NCTC13304 infected in ICR mouse model administered intravenously with compound at 1 and 6 hrs post-infection and measured after 7 days", "format": "functional", "settings": "NCTC13304, 168 h, route iv, time 7 day"}, "[25]": {"experiment": "Clearance in male Sprague-Dawley rat at 3 mg/kg, iv measured after 24 hrs by LC-MS/MS analysis", "format": "ADME, organism-based", "settings": "in vivo"}, "Pseudomonas aeruginosa [26]": {"system": "Pseudomonas aeruginosa", "experiment": "Antibacterial activity against Pseudomonas aeruginosa ATCC 27853 assessed as bacterial concentration at 4 to 8 times of MIC measured after 1 hrs by time-kill kinetics assay", "format": "functional, organism-based"}, "Escherichia coli [27]": {"system": "Escherichia coli", "experiment": "Antibacterial activity against Escherichia coli ATCC BAA-2523 infected in ICR mouse model assessed as survival rate at 4 mg/kg, iv administered at 1 and 6 hrs post-infection and measured after 7 days relative to control", "format": "functional", "settings": "ATCC BAA-2523, 168 h, time 7 day"}, "[28]": {"experiment": "MRT in male Sprague-Dawley rat at 3 mg/kg, iv measured after 24 hrs by LC-MS/MS analysis", "format": "ADME, organism-based", "settings": "in vivo"}, "Lipopolysaccharide (LPS) [29]": {"biological_target": "Lipopolysaccharide (LPS)", "experiment": "Binding affinity to Pseudomonas aeruginosa LPS assessed as dissociation constant by SPR analysis"}, "[30]": {"experiment": "Protein binding in human plasma assessed as unbound fraction at 0.2 uM incubated for 6 hrs by LC-MS/MS analysis", "format": "ADME, cell-free"}, "Pseudomonas aeruginosa [31]": {"system": "Pseudomonas aeruginosa", "experiment": "Antibacterial activity against Pseudomonas aeruginosa ATCC 27853 infected in ICR mouse model administered intravenously with compound at 1 and 6 hrs post-infection and measured after 7 days", "format": "functional", "settings": "ATCC 27853, 168 h, route iv, time 7 day"}, "Pseudomonas aeruginosa [32]": {"system": "Pseudomonas aeruginosa", "experiment": "Antibacterial activity against carbapenem-resistant Pseudomonas aeruginosa clinical isolate ets15 assessed as inhibition of bacterial growth incubated for 24 hrs by CLSI protocol based broth microdilution method", "format": "functional"}, "Pseudomonas aeruginosa [33]": {"system": "Pseudomonas aeruginosa", "experiment": "Antibacterial activity against Pseudomonas aeruginosa ATCC 27853 assessed as decrease in bacterial concentration at 0.5 to 2 times of MIC measured after 2 hrs by time-kill kinetics assay", "format": "functional, organism-based"}, "Pseudomonas aeruginosa [34]": {"system": "Pseudomonas aeruginosa", "experiment": "Antibacterial activity against carbapenem-resistant Pseudomonas aeruginosa clinical isolate 19-3 assessed as inhibition of bacterial growth incubated for 16 to 20 hrs by CLSI protocol based broth microdilution method", "format": "functional", "settings": "time 16-20 hrs"}, "Klebsiella pneumoniae [35]": {"system": "Klebsiella pneumoniae", "experiment": "Antibacterial activity against carbapenem-resistant Klebsiella pneumoniae clinical isolate ets26 assessed as inhibition of bacterial growth incubated for 24 hrs by CLSI protocol based broth microdilution method", "format": "functional"}, "Klebsiella pneumoniae [36]": {"system": "Klebsiella pneumoniae", "experiment": "Antibacterial activity against carbapenem-resistant Klebsiella pneumoniae clinical isolate ets80 assessed as inhibition of bacterial growth incubated for 24 hrs by CLSI protocol based broth microdilution method", "format": "functional"}}, "note": "pKd: −log10 of the molar value. Activity calls are given as the source filed them. No cut-off for these calls is given here. Bridge positions count the residues as written; N and C are the ends. Square brackets hold non-standard residues; d marks the D form. Peptide text beside a SMILES is read from it. * marks the point of attachment. Heptanoyl(6-Me) = CC(C)CCCCC(=O)*; Dab = NCC[C@H](N)C(=O)O; Dap = NC[C@H](N)C(=O)O", "data": [{"compound": "CC(C)CCCCC(=O)N[C@@H](CCN)C(=O)N[C@H](C(=O)N[C@@H](CN)C(=O)N[C@H]1CCNC(=O)[C@H]([C@@H](C)O)NC(=O)[C@H](CCN)NC(=O)[C@H](CCN)NC(=O)[C@H]([C@@H](C)O)NC(=O)[C@@H](Cc2ccccc2)NC(=O)[C@H](CCN)NC1=O)[C@@H](C)O", "note": "({Heptanoyl(6-Me)}-[Dab]T[Dap][Dab][Dab][dF]T[Dab][Dab]T; lactam 4-C)", "values": [{"measurement": "MIC", "setting": "Pseudomonas aeruginosa [1]", "result": 0.5, "unit": "µg/mL"}, {"measurement": "half-life", "setting": "[2]", "result": 2.22, "unit": "h"}, {"measurement": "MIC", "setting": "Escherichia coli [3]", "result": "≤ 0.03", "unit": "µg/mL"}, {"measurement": "MIC", "setting": "Acinetobacter baumannii [4]", "result": 0.5, "unit": "µg/mL"}, {"measurement": "MIC", "setting": "Klebsiella pneumoniae [5]", "result": "≤ 0.03", "unit": "µg/mL"}, {"measurement": "MIC", "setting": "Acinetobacter baumannii [6]", "result": 0.5, "unit": "µg/mL"}, {"measurement": "MIC", "setting": "Pseudomonas aeruginosa [7]", "result": 32, "unit": "µg/mL"}, {"measurement": "pKd", "setting": "Lipopolysaccharide (LPS) [8]", "result": 7.52}, {"measurement": "IC50 at 72 h", "setting": "[9]", "result": "> 500", "unit": "µg/mL"}, {"measurement": "MIC", "setting": "Acinetobacter baumannii [10]", "result": "≤ 0.03", "unit": "µg/mL"}, {"measurement": "survival at 10 mg/kg", "setting": "Pseudomonas aeruginosa [11]", "result": 100, "unit": "%"}, {"measurement": "MIC", "setting": "Klebsiella pneumoniae [12]", "result": 0.5, "unit": "µg/mL"}, {"measurement": "MIC", "setting": "Pseudomonas aeruginosa [13]", "result": 32, "unit": "µg/mL"}, {"measurement": "MIC", "setting": "Acinetobacter baumannii [14]", "result": "< 0.06", "unit": "µg/mL"}, {"measurement": "MIC", "setting": "Pseudomonas aeruginosa [15]", "result": 32, "unit": "µg/mL"}, {"measurement": "MIC", "setting": "Escherichia coli [16]", "result": "≤ 0.03", "unit": "µg/mL"}, {"measurement": "MIC", "setting": "Pseudomonas aeruginosa [17]", "result": 0.5, "unit": "µg/mL"}, {"measurement": "MIC", "setting": "Escherichia coli [18]", "result": "< 0.06", "unit": "µg/mL"}, {"measurement": "Vd", "setting": "[19]", "result": 0.78, "unit": "L/kg"}, {"measurement": "survival at 2 mg/kg", "setting": "Klebsiella pneumoniae [20]", "result": 100, "unit": "%"}, {"measurement": "MIC", "setting": "Klebsiella pneumoniae [21]", "result": 0.25, "unit": "µg/mL"}, {"measurement": "MIC", "setting": "Acinetobacter baumannii [22]", "result": 0.5, "unit": "µg/mL"}, {"measurement": "MIC", "setting": "Klebsiella pneumoniae [23]", "result": 0.5, "unit": "µg/mL"}, {"measurement": "ED50", "setting": "Acinetobacter baumannii [24]", "result": 0.83, "unit": "mg/kg"}, {"measurement": "clearance", "setting": "[25]", "result": 4.16, "unit": "mL/min/kg"}, {"measurement": "Activity", "setting": "Pseudomonas aeruginosa [26]", "result": "Below limit of detection"}, {"measurement": "survival at 4 mg/kg", "setting": "Escherichia coli [27]", "result": 100, "unit": "%"}, {"measurement": "MRT", "setting": "[28]", "result": 1.17, "unit": "h"}, {"measurement": "pKd", "setting": "Lipopolysaccharide (LPS) [29]", "result": 4.94}, {"measurement": "fraction unbound at 6 h, 0.2 µM", "setting": "[30]", "result": 0.232}, {"measurement": "ED50", "setting": "Pseudomonas aeruginosa [31]", "result": 6.38, "unit": "mg/kg"}, {"measurement": "MIC", "setting": "Pseudomonas aeruginosa [32]", "result": 0.5, "unit": "µg/mL"}, {"measurement": "Activity", "setting": "Pseudomonas aeruginosa [33]", "result": "inactive"}, {"measurement": "MIC", "setting": "Pseudomonas aeruginosa [34]", "result": 0.125, "unit": "µg/mL"}, {"measurement": "MIC", "setting": "Klebsiella pneumoniae [35]", "result": 0.5, "unit": "µg/mL"}, {"measurement": "MIC", "setting": "Klebsiella pneumoniae [36]", "result": 0.25, "unit": "µg/mL"}]}]}
